The values below come from US8759348B2, “Use of 4-(pyrrolidin-1-yl)quinoline compounds to kill clinically latent microorganisms” (Helperby Therapeutics Limited, priority 2007, dated 2014).

In this test the test system is persister Mycobacterium tuberculosis. Format: cell-based. To be noted: 10 μg/mL of test compound.

The structures appear in SMILES notation.

As for `Cc1cc(N2CCC(Cc3ccccc3)C2)c2cc(Oc3ccccc3)ccc2n1.Cl` (stereo not shown) [Example 8, 4-(3-Benzylpyrrolidin-1-yl)-2-methyl-6-phenoxyquinoline hydrochloride], the log kill is 2.26.
